Here are results for 29 compounds from patent US20220356174A1, “PYRIDIN-2-ONE COMPOUNDS USEFUL AS SMARCA2 ANTAGONISTS” (Epizyme, Inc., priority 2018, published 2022).

The structures appear in SMILES notation. pIC50: −log10 of the molar value.

The target of the first test is T1, FL-SMARCA2 (full-length human SMARCA2 isoform 1) (Homo sapiens, UniProt P51531).
T1 construct: FLAG tag (YKDDDDK) (C); made in house; host or cells: Sf21 insect cells (baculovirus, pFastBacI)
T1 sequence (P51531 with tags, fused parts or gaps): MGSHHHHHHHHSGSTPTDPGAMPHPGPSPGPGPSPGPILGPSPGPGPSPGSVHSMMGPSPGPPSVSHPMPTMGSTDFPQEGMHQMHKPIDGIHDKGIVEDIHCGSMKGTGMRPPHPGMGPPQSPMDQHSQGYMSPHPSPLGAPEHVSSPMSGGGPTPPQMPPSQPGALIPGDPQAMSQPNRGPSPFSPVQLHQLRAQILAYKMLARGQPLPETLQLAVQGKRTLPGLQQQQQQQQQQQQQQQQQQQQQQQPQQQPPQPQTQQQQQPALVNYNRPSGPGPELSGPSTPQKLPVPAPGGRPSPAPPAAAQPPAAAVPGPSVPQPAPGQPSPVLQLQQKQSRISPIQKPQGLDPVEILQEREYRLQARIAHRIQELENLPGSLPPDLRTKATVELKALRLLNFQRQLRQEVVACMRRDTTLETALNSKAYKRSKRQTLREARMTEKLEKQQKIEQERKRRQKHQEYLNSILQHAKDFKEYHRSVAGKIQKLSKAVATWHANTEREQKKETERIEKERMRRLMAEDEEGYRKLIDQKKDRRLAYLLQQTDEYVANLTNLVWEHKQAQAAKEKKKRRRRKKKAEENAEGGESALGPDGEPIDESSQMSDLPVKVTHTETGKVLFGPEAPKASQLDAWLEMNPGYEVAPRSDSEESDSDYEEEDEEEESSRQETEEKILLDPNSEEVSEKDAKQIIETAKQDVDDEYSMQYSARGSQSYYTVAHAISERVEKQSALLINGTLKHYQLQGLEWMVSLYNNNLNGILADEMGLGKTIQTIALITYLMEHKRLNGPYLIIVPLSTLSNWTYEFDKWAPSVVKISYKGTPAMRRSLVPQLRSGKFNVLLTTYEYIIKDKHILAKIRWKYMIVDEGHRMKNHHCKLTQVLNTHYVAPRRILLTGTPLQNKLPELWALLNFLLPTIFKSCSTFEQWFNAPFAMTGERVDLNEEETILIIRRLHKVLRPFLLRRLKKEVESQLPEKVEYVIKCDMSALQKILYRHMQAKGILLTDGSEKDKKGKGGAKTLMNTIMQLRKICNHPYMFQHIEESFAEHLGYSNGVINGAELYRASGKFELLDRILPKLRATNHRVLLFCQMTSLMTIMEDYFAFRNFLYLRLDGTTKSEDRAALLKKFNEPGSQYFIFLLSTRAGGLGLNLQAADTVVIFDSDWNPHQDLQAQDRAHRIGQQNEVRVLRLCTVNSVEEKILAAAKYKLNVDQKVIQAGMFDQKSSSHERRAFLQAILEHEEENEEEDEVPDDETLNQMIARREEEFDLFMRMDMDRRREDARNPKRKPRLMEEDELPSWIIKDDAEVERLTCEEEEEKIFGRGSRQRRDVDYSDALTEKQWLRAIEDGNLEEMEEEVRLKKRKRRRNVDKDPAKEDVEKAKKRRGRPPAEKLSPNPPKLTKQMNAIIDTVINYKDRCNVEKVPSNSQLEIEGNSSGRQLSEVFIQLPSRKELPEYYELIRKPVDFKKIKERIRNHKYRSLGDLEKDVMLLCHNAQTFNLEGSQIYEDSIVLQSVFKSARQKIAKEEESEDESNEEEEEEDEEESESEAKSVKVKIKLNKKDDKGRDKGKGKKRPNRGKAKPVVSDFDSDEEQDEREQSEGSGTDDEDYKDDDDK
Description: SMARCA2 ATPase activity assay (ADP-Glo, chicken mononucleosome substrate). Particulars: Table 3.1; ATPase assay, enzyme 5 nM, ATP 250 uM, chicken mononucleosome 10 nM, 30 min preincubation. The format is biochemical. For orientation: ADP-Glo turns the ADP formed in a reaction into a luminescent signal.
In the case of `O=C(Nc1cc(F)c(=O)n(CCF)c1)c1c[nH]c(=O)s1` [Compound 239], the pIC50 was less than 4.30.

`CCn1cc(NC(=O)c2cc(Cl)c(Cl)n2C)cc(F)c1=O` [Compound 164] showed a pIC50 of 6.51.

The compound `CCn1cc(NC(=O)c2cc(Cl)c(Cl)[nH]2)cc(F)c1=O` [Compound 167] had a pIC50 of 6.22.

For the compound `CCn1cc(NC(=O)c2cc(C)c(Cl)s2)ccc1=O` [Compound 65], the pIC50 was 4.55.

For the compound `Cn1cnc(-c2ccc(C(=O)Nc3cc(F)c(=O)n(CCF)c3)s2)c1` [Compound 311], the pIC50 is less than 4.30.

`Cn1c(C(=O)Nc2cc(Cl)c(=O)n(CCF)c2)cnc1Cl` [Compound 194] showed a pIC50 of 5.51.

As to `O=C(Nc1cc(F)c(=O)n(CCF)c1)c1cn(CC(F)(F)F)c(=O)s1` [Compound 277], the pIC50 is less than 4.30.

Take `CCn1cc(NC(=O)c2ccn(C)n2)ccc1=O` [Compound 93]: the pIC50 was less than 4.30.

`O=C(Nc1cc(F)c(=O)n(CCF)c1)c1ccc(-c2nccs2)s1` [Compound 317] had a pIC50 of less than 4.30.

`CCn1cc(NC(=O)c2cnc(C#N)s2)ccc1=O` [Compound 206] had a pIC50 of 6.50.

For the compound `CNC(=O)c1ccc(C(=O)Nc2cc(F)c(=O)n(CCF)c2)s1` [Compound 304], the pIC50 is less than 4.30.

Compound `CCn1cc(NC(=O)c2cc(Cl)c(Cl)s2)cc(C(C)C)c1=O` [Compound 111] had a pIC50 of less than 4.30.

`N#Cc1ncc(C(=O)Nc2cc(F)c(=O)n(CCF)c2)o1` [Compound 266] showed a pIC50 of less than 4.30.

On to `O=C(Nc1cc(F)c(=O)n(CCF)c1)c1cc(Cl)c(Cl)[nH]1` [Compound 159], for which the pIC50 is 6.71.

The compound `Cn1cc(NC(=O)c2coc(Br)c2)cc(Cl)c1=O` [Compound 2] gave a pIC50 of 4.48.

Compound `CCn1cc(NC(=O)c2cc(C#Cc3cccnc3)c(Cl)s2)ccc1=O` [Compound 287] showed a pIC50 of 5.89.

In turn, `CCn1cc(NC(=O)c2cc(C#CCO)c(Cl)s2)ccc1=O` [Compound 300] gave a pIC50 of 5.56.

With `CCn1cc(NC(=O)c2nnc(C)s2)ccc1=O` [Compound 78], the pIC50 was less than 4.30.

As for `Cn1c(C(=O)Nc2cc(F)c(=O)n(CC(F)(F)F)c2)cnc1Cl` [Compound 212], the pIC50 was 5.07.

`CSc1cc(C(=O)Nc2cc(F)c(=O)n(CC(F)F)c2)sc1Cl` [Compound 341] showed a pIC50 of 6.18.

`CCn1cc(NC(=O)c2cc(Cl)c(Cl)n2C)cc(Cl)c1=O` [Compound 133] gave a pIC50 of 6.47.

On to `CCn1cc(C(=O)Nc2ccc(Br)s2)ccc1=O` [Compound 77], for which the pIC50 is less than 4.30.

Regarding `CCn1cc(NC(=O)c2cc(Cl)c(Cl)s2)cc(C)c1=O` [Compound 105], the pIC50 was 4.56.

Turning to `N#Cc1sc(C(=O)Nc2ccc(=O)n(CC(F)(F)F)c2)cc1Cl` [Compound 127], the pIC50 was 6.60.

The compound `CCn1cc(NC(=O)c2ccc(F)s2)ccc1=O` [Compound 26] had a pIC50 of 4.71.

Staying with this test, now noted: Table 3d.1; ATPase assay, enzyme 5 nM, ATP 250 uM, chicken mononucleosome 10 nM, 30 min preincubation; read-out: FL-SMARCA2 IC>50.
Consider `CCn1cc(NC(=O)Nc2ccccn2)ccc1=O` [Compound 17d], for which the pIC50 is less than 4.30.

In the case of `O=C(Nc1ccc(=O)n(CC(F)(F)F)n1)c1cnc(Cl)s1` [Compound 23d], the pIC50 was 4.90.

For `CCn1cc(NC(=O)c2cc(Cl)c(Cl)s2)c(C)cc1=O` [Compound 26d], the pIC50 was less than 4.30.

`O=C(Nc1cc(F)c(=O)n(CC(F)F)c1)c1cc(Cl)c(C#CCO)s1` [Compound 52d]: the pIC50 is 4.47.

A further test deals with FL-SMARCA4 (Homo sapiens, UniProt P51532). Description: SMARCA4 ATPase activity assay (ADP-Glo, chicken mononucleosome substrate). Particulars: FL-SMARCA4 IC50.
Chain of FL-SMARCA4 (P51532 whole entry): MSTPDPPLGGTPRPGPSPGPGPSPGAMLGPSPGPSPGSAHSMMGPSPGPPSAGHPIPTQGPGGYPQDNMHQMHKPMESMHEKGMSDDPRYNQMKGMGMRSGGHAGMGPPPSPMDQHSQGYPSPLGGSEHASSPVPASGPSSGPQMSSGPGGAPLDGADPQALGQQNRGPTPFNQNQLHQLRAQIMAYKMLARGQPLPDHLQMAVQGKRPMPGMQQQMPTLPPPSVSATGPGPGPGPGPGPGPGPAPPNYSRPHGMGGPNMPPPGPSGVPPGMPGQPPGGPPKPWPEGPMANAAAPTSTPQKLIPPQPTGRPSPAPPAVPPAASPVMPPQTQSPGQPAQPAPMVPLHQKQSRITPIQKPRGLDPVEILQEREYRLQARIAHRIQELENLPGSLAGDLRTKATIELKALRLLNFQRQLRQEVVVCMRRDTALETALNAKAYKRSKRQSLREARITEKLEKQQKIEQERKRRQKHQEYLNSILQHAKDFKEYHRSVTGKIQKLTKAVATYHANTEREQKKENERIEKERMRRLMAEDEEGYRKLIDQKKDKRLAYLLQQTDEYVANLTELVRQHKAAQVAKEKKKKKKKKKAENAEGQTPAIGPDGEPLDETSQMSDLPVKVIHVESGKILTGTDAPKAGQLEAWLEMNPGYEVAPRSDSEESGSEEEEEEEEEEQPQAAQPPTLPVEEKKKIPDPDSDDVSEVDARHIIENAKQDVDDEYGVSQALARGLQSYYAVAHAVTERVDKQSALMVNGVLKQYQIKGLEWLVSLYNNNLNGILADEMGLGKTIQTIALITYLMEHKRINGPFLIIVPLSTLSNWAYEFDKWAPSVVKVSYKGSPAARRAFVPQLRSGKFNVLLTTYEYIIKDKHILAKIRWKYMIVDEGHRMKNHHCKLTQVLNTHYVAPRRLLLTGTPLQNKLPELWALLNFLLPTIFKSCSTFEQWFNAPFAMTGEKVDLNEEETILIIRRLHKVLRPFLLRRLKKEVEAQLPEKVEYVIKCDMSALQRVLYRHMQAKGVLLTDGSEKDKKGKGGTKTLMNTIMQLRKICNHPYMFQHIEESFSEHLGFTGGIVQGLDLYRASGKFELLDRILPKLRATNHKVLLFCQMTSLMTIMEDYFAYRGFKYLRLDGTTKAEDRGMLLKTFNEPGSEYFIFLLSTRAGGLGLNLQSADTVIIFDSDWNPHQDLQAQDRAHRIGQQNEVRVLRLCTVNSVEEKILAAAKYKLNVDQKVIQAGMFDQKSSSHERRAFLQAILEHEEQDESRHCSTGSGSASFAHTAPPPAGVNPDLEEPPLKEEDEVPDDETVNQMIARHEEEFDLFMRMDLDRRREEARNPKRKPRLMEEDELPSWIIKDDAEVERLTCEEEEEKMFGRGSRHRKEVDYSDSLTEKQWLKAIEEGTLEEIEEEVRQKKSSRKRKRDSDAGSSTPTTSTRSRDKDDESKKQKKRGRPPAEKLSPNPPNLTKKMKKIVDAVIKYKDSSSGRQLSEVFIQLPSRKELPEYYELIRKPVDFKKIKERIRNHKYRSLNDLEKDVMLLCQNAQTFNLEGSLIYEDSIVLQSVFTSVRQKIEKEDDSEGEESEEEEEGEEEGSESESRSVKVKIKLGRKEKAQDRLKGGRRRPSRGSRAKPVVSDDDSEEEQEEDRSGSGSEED
Compound `CCn1cc(NC(=O)Nc2ccccn2)ccc1=O` [Compound 17d] showed a pIC50 of less than 4.30.

With `O=C(Nc1ccc(=O)n(CC(F)(F)F)n1)c1cnc(Cl)s1` [Compound 23d], the pIC50 is 4.82.

In the case of `CCn1cc(NC(=O)c2cc(Cl)c(Cl)s2)c(C)cc1=O` [Compound 26d], the pIC50 was less than 4.30.

As for `O=C(Nc1cc(F)c(=O)n(CC(F)F)c1)c1cc(Cl)c(C#CCO)s1` [Compound 52d], the pIC50 is less than 4.30.

The same test, now with this note: FL-SMARCA4 IC50, Table 3.2; ATPase assay, enzyme 5 nM, ATP 250 uM, chicken mononucleosome 10 nM, 30 min preincubation.
The compound `O=C(Nc1cc(F)c(=O)n(CCF)c1)c1c[nH]c(=O)s1` [Compound 239] showed a pIC50 of less than 4.30.

Compound `CCn1cc(NC(=O)c2cc(Cl)c(Cl)n2C)cc(F)c1=O` [Compound 164] had a pIC50 of 5.87.

For `CCn1cc(NC(=O)c2cc(Cl)c(Cl)[nH]2)cc(F)c1=O` [Compound 167], the pIC50 is 5.54.

Take `CCn1cc(NC(=O)c2cc(C)c(Cl)s2)ccc1=O` [Compound 65]: the pIC50 was less than 4.30.

Compound `Cn1cnc(-c2ccc(C(=O)Nc3cc(F)c(=O)n(CCF)c3)s2)c1` [Compound 311] had a pIC50 of less than 4.30.

`Cn1c(C(=O)Nc2cc(Cl)c(=O)n(CCF)c2)cnc1Cl` [Compound 194]: the pIC50 was 4.66.

Compound `O=C(Nc1cc(F)c(=O)n(CCF)c1)c1cn(CC(F)(F)F)c(=O)s1` [Compound 277] gave a pIC50 of less than 4.30.

`CCn1cc(NC(=O)c2ccn(C)n2)ccc1=O` [Compound 93] gave a pIC50 of less than 4.30.

For `O=C(Nc1cc(F)c(=O)n(CCF)c1)c1ccc(-c2nccs2)s1` [Compound 317], the pIC50 was less than 4.30.

For the compound `CCn1cc(NC(=O)c2cnc(C#N)s2)ccc1=O` [Compound 206], the pIC50 is 6.19.

For the compound `CNC(=O)c1ccc(C(=O)Nc2cc(F)c(=O)n(CCF)c2)s1` [Compound 304], the pIC50 was less than 4.30.

Consider `CCn1cc(NC(=O)c2cc(Cl)c(Cl)s2)cc(C(C)C)c1=O` [Compound 111], for which the pIC50 is less than 4.30.

Take `N#Cc1ncc(C(=O)Nc2cc(F)c(=O)n(CCF)c2)o1` [Compound 266]: the pIC50 is less than 4.30.

As for `O=C(Nc1cc(F)c(=O)n(CCF)c1)c1cc(Cl)c(Cl)[nH]1` [Compound 159], the pIC50 is 6.12.

With `Cn1cc(NC(=O)c2coc(Br)c2)cc(Cl)c1=O` [Compound 2], the pIC50 was less than 4.30.

On to `CCn1cc(NC(=O)c2cc(C#Cc3cccnc3)c(Cl)s2)ccc1=O` [Compound 287], for which the pIC50 was 5.44.

In the case of `CCn1cc(NC(=O)c2cc(C#CCO)c(Cl)s2)ccc1=O` [Compound 300], the pIC50 was 5.22.

On to `CCn1cc(NC(=O)c2nnc(C)s2)ccc1=O` [Compound 78], for which the pIC50 is less than 4.30.

`Cn1c(C(=O)Nc2cc(F)c(=O)n(CC(F)(F)F)c2)cnc1Cl` [Compound 212] showed a pIC50 of less than 4.30.

Regarding `CSc1cc(C(=O)Nc2cc(F)c(=O)n(CC(F)F)c2)sc1Cl` [Compound 341], the pIC50 was 5.03.

In the case of `CCn1cc(NC(=O)c2cc(Cl)c(Cl)n2C)cc(Cl)c1=O` [Compound 133], the pIC50 is 5.66.

The compound `CCn1cc(C(=O)Nc2ccc(Br)s2)ccc1=O` [Compound 77] had a pIC50 of less than 4.30.

`CCn1cc(NC(=O)c2cc(Cl)c(Cl)s2)cc(C)c1=O` [Compound 105] showed a pIC50 of less than 4.30.

Turning to `N#Cc1sc(C(=O)Nc2ccc(=O)n(CC(F)(F)F)c2)cc1Cl` [Compound 127], the pIC50 is 6.28.

`CCn1cc(NC(=O)c2ccc(F)s2)ccc1=O` [Compound 26] showed a pIC50 of less than 4.30.
